Experimental data taken from patent US20250304578A1, “NITROGEN-CONTAINING FUSED HETEROCYCLIC COMPOUNDS OF N-SULFONAMIDE AND USE THEREOF” (NUTSHELL THERAPEUTICS (SHANGHAI) CO., LTD., priority 2023, published 2025).
Like-named read-outs stand apart in the source and are kept apart here.

How the values were obtained:
[1] = molecular target: voltage-gated potassium channel hERG (Homo sapiens (Human), UniProt Q12809); assay: hERG potassium channel inhibitory activity test (manual patch clamp, HEK293); assay type: cell-based; conditions: HEK293 cells stably expressing hERG
Protocol: This experiment was conducted to detect the effect of compounds in five concentrations on hERG channel current, obtaining a dose-effect curve and calculating the IC50.
Cell line and cell culture: HEK293 cell line stably expressing the hERG ion channel (Cat. No.: K1236) was purchased from Invitrogen Company. […] When the cell density grows to 40% to 80% of the bottom area of the culture dish, the cells were digested with trypsin and passaged three times per week. Prior to the experiment, cells were cultured in a 3.5 cm culture dish at a density of 5×10^5, induced with 1 μg/mL doxycycline for 48 hours, and then the cells were digested and seeded on glass slides for subsequent manual patch clamp experiments. […]
Experimental procedure: A coverslip loaded with HEK293 cells in a culture dish was placed in the perfusion chamber of the microscope stage. […] The hERG current used to detect the test compound was continuously recorded for 120 seconds before administration to evaluate the stability of the hERG current generated by the test cells. […] Test of the inhibitory effect of the test compound on hERG current: First, the hERG current measured in the extracellular fluid containing 0.1% DMSO was used as the detection baseline. […] After each perfusion was completed, approximately 5 minutes were waited to allow the compounds to fully act on the cells, and hERG currents were synchronously recorded.

NUGC-3 cells = assay: Anti-proliferation effect on NUGC-3 cells (Cell Counting Kit-8); assay type: cell-based; conditions: Homo sapiens, NUGC-3, 120 h; 5 days of treatment
Protocol: Cell line NUGC-3 (JCRB, JCRB0822) was cultured in RPMI 1640 (Invitrogen, 11875-085) medium supplemented with 10% (v/v) fetal bovine serum (BI, 04-002-1A), according to the standard instructions of the American Type Culture Collection. The cell line was authenticated by short tandem repeat profiling.
In the proliferation assay, 1000 NUGC-3 cells were seeded in a 96-well flat clear bottom, TC-treated plate (Corning, 3903) in 200 μL of medium per well, and allowed to recover overnight in culture medium. Compounds were added with increasing concentration, with DMSO treatment serving as a […] control. After 5 days of treatment, the plate was equilibrated to room temperature for 30 minutes, and the number of living cells was measured by the addition of the Cell Counting Kit-8 reagent (MCE, HY-K0301). Absorbance was measured on an Enspire (Perkin elme). The relative viability of each group was presented as the percentage change relative to the […] control group and then fit to a four-parameter logit non-linear curve using the program XLFit (IDBS)

[2] = Metabolic stability test in hepatocytes; assay type: in vitro ADME; conditions: cryopreserved hepatocytes in suspension; for hepatocyte CLint at 1 μM: read-out: In vitro Clint (μL/min/10^6 cells); for half-life at 1 μM: read-out: In vitro t1/2
Protocol: The test compound and the control drug verapamil powder were prepared into a high concentration stock solution using DMSO, and diluted to a 100 μM working solution with 50% acetonitrile/water before use, with final concentrations of 1 μM for the test compound and verapamil.
• 1) 49.5 mL of Williams' Medium E and 0.5 mL GlutaMAX were mixed as the incubation solution. The hepatocyte recovery solution and the incubation solution were pre-warmed in a 37° C. water bath for at least 15 minutes prior to use. • 2) A tube of cryopreserved hepatocytes was taken, ensuring that the hepatocytes were still in a cryogenic frozen state prior to resuscitation. The hepatocytes were quickly placed in a 37° C. water bath and gently shaken until all ice crystals were completely dispersed, sprayed with 70% ethanol and transferred to a biosafety cabinet. • 3) The contents of the hepatocyte tube were poured into a centrifuge tube containing 50 mL of recovery medium, which were centrifuged at 100 g for 10 minutes. After centrifugation, the recovery medium was aspirated, and sufficient incubation medium was added to obtain a cell suspension having a cell density of approximately 1.5×10^6 cells/mL. • 4) Cellometer Vision was used to count hepatocytes and determine the density of viable cells. The survival rate of hepatocytes must be greater than 75%. The hepatocyte suspension was diluted with incubation medium to a viable cell density of 0.5×10^6 cells/mL. • 5) A portion of hepatocyte suspension with a density of 0.5×10^6 cells/mL was boiled in water for 5 minutes to inactivate as a negative control. After cells were inactivated, substrate conversion mediated by non-cellular enzymes could be easily investigated.
• 1) 198 μL of the suspension of live or inactivated cells was transferred to a 96-well deep-well plate, which was then placed on a vortexer and preheated in an incubator for 10 minutes. Live cells were incubated in duplicate, while inactivated cells were incubated in single. • 2) 2 μL of 100 μM test compound or verapamil was added to each well for the reaction initiation, and the deep-well plate was placed back on the incubator vortexer. • 3) 25 μL of the suspension were taken from the incubated samples at 0, 15, 30, 60, 90, and 120 minutes, respectively, and added to 150 μL of acetonitrile containing internal standards (200 nM alprazolam, 200 nM labetalol, 2 μM ketoprofen, and 200 nM caffeine) to terminate the reaction. The mixture was vortexed for 10 minutes and centrifuged at 3220 g and 4° C. for 30 minutes. After centrifugation was completed, 100 μL of the supernatant and 100 μL of ultra-pure water were mixed well for UPLC-MS/MS analysis detection.
All data calculations were performed using Microsoft Excel software. Peak areas were detected by extracting the ion chromatogram. The in vitro half-life (t1/2) of the parent drug was detected by linear fitting of the natural logarithm of the percentage of parent drug […] with time.
The in vitro half-life (t1/2) was calculated by the slope: […]
In vitro intrinsic clearance (unit μL/min/10^6 cells) was calculated using the following formula:
[formula] • V=incubation volume per well (0.2 mL); • N=number of cells per well (0.1×10^6 cells)

[3] = In vivo pharmacokinetic study in rats; conditions: male, rat, plasma, SD rats
Protocol: Intravenous injection: 40% HP-β-CD in water; intragastric administration: 0.2% HPC+0.5% Tween80 in water.
6 male rats. Fasting treatment was performed in the evening before the administration, with free access to water. During the experiment, the rats were allowed to eat and drink freely, and administered by intravenous injection or gavage. After administration, the animal status was observed, and abnormal behaviors were recorded. Blood was collected via jugular vein puncture at 0.0833, 0.25, 1, 2, 4, 8, and 24 hours after intravenous injection; Blood was collected via jugular vein puncture at 0.25, 0.5, 1, 2, 4, 6, 8, and 24 hours after intragastric administration. 50 μL of plasma sample was taken and added with 500 μL of acetonitrile (containing dexamethasone as an internal standard) to precipitate proteins. The mixture was centrifuged at 4° C. and 4000 rpm for 20 minutes, and 300 μL of the supernatant was taken and mixed with 300 μL of Watsons aqueous solution in a 96-well plate. Then, 5 μL of the sample was taken for LC-MS/MS detection.
The standard curve was established using the internal standard method, with the theoretical standard curve concentration as the X-axis and the peak area ratio as the Y-axis (peak area of the test compound/peak area of internal standard). Linear regression method (weighting factor 1/X2) was used, R^2>0.9900. Unknown samples were calculated by the standard curve. Pharmacokinetic parameters were calculated by the non-compartmental analysis model of WinNonlin 8.2 software and were presented in a report, including Clint, Cmax, AUC, etc.

CYP2C19 = CYP2C19 (Homo sapiens (Human), UniProt P33261); assay: Inhibitory activity on CYP isoenzymes at a single concentration; assay type: in vitro ADME; conditions: pH 7.4, probe mephenytoin; final compound concentration 10 μM; human liver microsomes; substrate mephenytoin; NI: no inhibition; read-out: Inhibition rate (%) CYP2C19
Text: The buffer was filtered through a 0.45 μm filter.

Sequence of voltage-gated potassium channel hERG (Q12809 whole entry): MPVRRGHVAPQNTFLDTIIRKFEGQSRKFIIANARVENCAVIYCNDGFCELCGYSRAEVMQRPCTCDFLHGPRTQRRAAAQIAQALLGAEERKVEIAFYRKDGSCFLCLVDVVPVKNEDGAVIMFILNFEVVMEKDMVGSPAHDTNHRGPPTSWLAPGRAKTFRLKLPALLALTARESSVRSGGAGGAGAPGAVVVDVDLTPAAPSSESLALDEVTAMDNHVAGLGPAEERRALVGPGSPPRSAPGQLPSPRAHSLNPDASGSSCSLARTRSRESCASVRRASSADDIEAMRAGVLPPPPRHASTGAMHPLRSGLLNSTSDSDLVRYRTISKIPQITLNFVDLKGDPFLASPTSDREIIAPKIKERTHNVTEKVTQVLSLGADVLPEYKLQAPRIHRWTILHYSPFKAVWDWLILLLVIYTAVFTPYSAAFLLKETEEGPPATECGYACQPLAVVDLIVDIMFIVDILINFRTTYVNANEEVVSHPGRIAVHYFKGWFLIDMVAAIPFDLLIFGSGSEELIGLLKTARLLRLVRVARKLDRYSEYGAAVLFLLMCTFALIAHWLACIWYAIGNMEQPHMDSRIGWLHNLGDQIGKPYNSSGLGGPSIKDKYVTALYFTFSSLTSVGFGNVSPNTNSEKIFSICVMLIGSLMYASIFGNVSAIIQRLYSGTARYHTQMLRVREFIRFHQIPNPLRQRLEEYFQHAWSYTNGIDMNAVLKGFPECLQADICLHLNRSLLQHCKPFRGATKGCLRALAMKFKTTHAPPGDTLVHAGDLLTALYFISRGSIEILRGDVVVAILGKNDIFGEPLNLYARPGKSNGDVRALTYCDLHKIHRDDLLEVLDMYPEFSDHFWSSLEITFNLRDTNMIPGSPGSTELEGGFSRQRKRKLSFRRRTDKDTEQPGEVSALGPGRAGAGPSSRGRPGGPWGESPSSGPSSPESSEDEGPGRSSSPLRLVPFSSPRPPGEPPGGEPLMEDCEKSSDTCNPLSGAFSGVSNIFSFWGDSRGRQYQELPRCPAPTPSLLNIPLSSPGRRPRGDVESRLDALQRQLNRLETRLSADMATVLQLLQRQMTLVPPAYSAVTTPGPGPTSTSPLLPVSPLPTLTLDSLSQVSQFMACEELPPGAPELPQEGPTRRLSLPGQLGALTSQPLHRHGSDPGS
Sequence of CYP2C19 (P33261 whole entry): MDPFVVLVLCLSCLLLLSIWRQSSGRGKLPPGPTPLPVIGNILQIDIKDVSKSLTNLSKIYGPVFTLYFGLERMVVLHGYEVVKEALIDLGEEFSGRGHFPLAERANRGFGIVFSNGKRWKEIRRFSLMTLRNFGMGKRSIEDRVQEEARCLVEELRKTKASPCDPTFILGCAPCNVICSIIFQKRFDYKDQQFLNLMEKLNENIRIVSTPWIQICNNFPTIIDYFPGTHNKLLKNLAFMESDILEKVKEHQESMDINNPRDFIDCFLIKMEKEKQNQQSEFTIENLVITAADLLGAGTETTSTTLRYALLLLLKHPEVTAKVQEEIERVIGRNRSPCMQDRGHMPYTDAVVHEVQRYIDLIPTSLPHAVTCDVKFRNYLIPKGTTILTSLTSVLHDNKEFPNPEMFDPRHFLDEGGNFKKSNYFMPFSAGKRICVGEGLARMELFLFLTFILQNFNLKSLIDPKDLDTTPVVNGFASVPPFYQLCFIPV

| hepatocyte CLint at 1 μM ([2]; Human hepatocytes) [µL/min/1e6 cells] | half-life at 1 μM ([2]; Human hepatocytes) [h] | hepatocyte CLint at 1 μM ([2]; Mouse hepatocytes) [µL/min/1e6 cells] | half-life at 1 μM ([2]; Mouse hepatocytes) [h] | hepatocyte CLint at 1 μM ([2]; Rat hepatocytes) [µL/min/1e6 cells] | half-life at 1 μM ([2]; Rat hepatocytes) [h] | AUC(0-t) ([3]; IV 1 mg/kg) [µM·h] | AUC(0-t) ([3]; PO 10 mg/kg) [µM·h] | Cmax ([3]; PO 10 mg/kg) [µM] | inhibition at 10 min, 10 µM (CYP2C19) [%] | Compound | IC50 [1] [nM] | IC50 (NUGC-3 cells) [nM] |
| --- | --- | --- | --- | --- | --- | --- | --- | --- | --- | --- | --- | --- |
| < 2.7 | > 8.52 | < 2.7 | > 8.52 | < 2.7 | > 8.52 | 8.4 | 58.4 | 8.9 | 8.4 | [2H]C([2H])([2H])Oc1nc(C(=O)NS(C)(=O)=O)ccc1NCC#Cc1cc2c(N[C@@H]3CCN(C)C[C@@H]3F)cccn2c1CC(F)(F)F [Cpd-2, 5-((3-(8-(((3S,4R)-3-Fluoro-1-methylpiperidin-4-yl)amino)-3-(2,2,2-trifluoroethyl)indolizin-2-yl)prop-2-yn-1-yl)amino)-6-(methoxy-d3)-N-(methylsulfonyl)picolinamide] | > 30000 | 58 |
| < 2.7 | > 8.52 | < 2.7 | > 8.52 | < 2.7 | > 8.52 | – | – | – | – | COc1nc(C(=O)NS(C)(=O)=O)ccc1NCC#Cc1cc2c(N[C@@H]3CCN(C)C[C@@H]3F)cccn2c1CC(F)(F)F [Cpd-1, 5-((3-(8-(((3S,4R)-3-Fluoro-1-methylpiperidin-4-yl)amino)-3-(2,2,2-trifluoroethyl)indolizin-2-yl)prop-2-yn-1-yl)amino)-6-methoxy-N-(methylsulfonyl)picolinamide] | > 30000 | 100 |
